Test systems include HOP-92 NSCLC; IGROV1 ovarian; K-562 leukemia; MCF7 breast; SF-295 CNS; ACHN renal; SNB-19 CNS; NCI-H460 lung; CCRF-CEM leukemia; TK-10 renal.
What all share (test): growth of human tumour cells (NCI), 48 h

“And” between values parts separate entries of the source, which are not always exact repeats. Equal entries are not always repeated.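 Cultured in 96-well plates, cells were exposed to test compound for 48 hours across five concentrations. GI50 = concentration required for 50% inhibition of growth. TGI: total growth inhibition.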 Where only a bound is given, the exact number is not on record here.

From PubChem BioAssay (NCI) come the findings set out here.

For the compound `Cc1ccc(N)cc1[As]=[As]c1cc(N)ccc1C` (configuration not stated), the GI50 is 0.997 µM with HOP-92 NSCLC; 1.88 µM with IGROV1 ovarian; 0.341 µM with K-562 leukemia; 0.537 µM with MCF7 breast; 4.6 µM in the assay on SF-295 CNS; 1.67 µM with ACHN renal. In addition, the GI50 in the assay with SNB-19 CNS is 1.68 µM; with NCI-H460 lung it was 3.08 µM; in the assay with CCRF-CEM leukemia, 0.298 µM; in the assay with TK-10 renal, 1.47 µM. The TGI in the assay on HOP-92 NSCLC is 2.4 µM; in the assay on IGROV1 ovarian, 4.18 µM; with K-562 leukemia it was more than 100 µM; with MCF7 breast, 2.75 µM; with SF-295 CNS it was 12.3 µM; in the assay on ACHN renal, 3.26 µM. The TGI in the assay on SNB-19 CNS worked out at 3.24 µM; in the assay with NCI-H460 lung, 12.2 µM; in the assay on CCRF-CEM leukemia, 2.36 µM; in the assay with TK-10 renal it was 2.81 µM.

As for `COc1cccc(Nc2ncnc3cc(NC(=O)CCl)ccc23)c1`, the GI50 in the assay with HOP-92 NSCLC is 1.7 µM; with IGROV1 ovarian it was 0.568 µM; with K-562 leukemia it was 0.343 µM; in the assay with MCF7 breast, 0.789 µM; in the assay on SF-295 CNS, 1.68 µM; in the assay with ACHN renal it was 1.08 µM. The GI50 with SNB-19 CNS was 1.5 µM; in the assay on NCI-H460 lung, 1.32 µM; with CCRF-CEM leukemia, 0.392 µM; in the assay on TK-10 renal it was 1.2 µM. Further, the TGI in the assay with HOP-92 NSCLC amounted to 3.4 µM; in the assay on IGROV1 ovarian it was 2.25 µM; with K-562 leukemia, 2 µM; in the assay with MCF7 breast, 3.19 µM; in the assay on SF-295 CNS, 3.19 µM; in the assay on ACHN renal, 2.34 µM. For the same compound, the TGI was 3.22 µM with SNB-19 CNS, 3.08 µM with NCI-H460 lung, 2.16 µM in the assay with CCRF-CEM leukemia and 2.52 µM with TK-10 renal.

For `O=C1/C(=C\c2ccc(F)cc2)CN(C(=O)c2ccccc2F)C/C1=C\c1ccc(F)cc1`, the GI50 with HOP-92 NSCLC was 1.86 µM; in the assay with IGROV1 ovarian, 1.82 µM; in the assay on K-562 leukemia, 0.414 µM; with MCF7 breast, 0.436 µM; with SF-295 CNS, 2.08 µM; in the assay with ACHN renal, 1.61 µM. Also, the GI50 was 1.58 µM in the assay with SNB-19 CNS, 2.51 µM in the assay with NCI-H460 lung, 0.736 µM with CCRF-CEM leukemia and 1.97 µM in the assay on TK-10 renal. For the same compound, the TGI with HOP-92 NSCLC came out at 5.63 µM; in the assay with IGROV1 ovarian, 3.62 µM; in the assay on MCF7 breast, 1.68 µM; in the assay on SF-295 CNS it was 5.02 µM; in the assay on ACHN renal it was 3.6 µM; in the assay with SNB-19 CNS it was 3.55 µM. For the same compound, the results for the TGI in the assay with NCI-H460 lung, in the assay on CCRF-CEM leukemia and in the assay on TK-10 renal were 6.71 µM, 4.97 µM and 4.27 µM, respectively.

Consider `C/C=C(\N=C=S)C(=O)OC1C(COC(C)=O)OC([C@]2(O)CC(=O)C(=N)C(C(=O)O)=C2O)C(O)C1OC1CC(OC)C(O)([C@@H](C)OC(=O)[C@@H](C)CC)C(C)O1` (some centres not stated), for which the TGI with HOP-92 NSCLC came to 9.77 µM; in the assay on IGROV1 ovarian, 36 µM; in the assay on K-562 leukemia, 14.6 µM; in the assay on MCF7 breast it was 38.4 µM; in the assay with SF-295 CNS, 37.2 µM; in the assay on ACHN renal, 33.1 µM. Further, the TGI in the assay with SNB-19 CNS came out at 31.5 µM; in the assay on NCI-H460 lung, 47.5 µM; in the assay with CCRF-CEM leukemia it was 7.45 µM; with TK-10 renal it was 31.4 µM.

Consider `COc1cccc2c1C(=O)c1c(O)c3c(c(O)c1C2=O)C[C@@](O)(C(=O)CO)CC3OC1CC(N)C(OC2CCCCO2)C(C)O1` (some centres not stated), for which the TGI with HOP-92 NSCLC is 0.537 µM; with K-562 leukemia, 6.58 µM; with MCF7 breast, 1.08 µM; in the assay with SF-295 CNS it was 1.13 µM and 2.44 µM; with ACHN renal, 0.029 µM; with SNB-19 CNS, 2.54 µM and 3.06 µM. For the same compound, the TGI with NCI-H460 lung was 1.08 µM and 5.09 µM. Also, the GI50 in the assay on IGROV1 ovarian is 0.0158 µM; in the assay with K-562 leukemia it was 0.0247 µM; in the assay with SF-295 CNS, 0.00963 µM; in the assay with SNB-19 CNS, 0.033 µM; in the assay on CCRF-CEM leukemia it was 0.00327 µM; in the assay on TK-10 renal, 0.0368 µM.

For the compound `C#C[C@@]1(O)[C@@H](CO)O[C@@H](n2cc(Br)c3c(Cl)ccnc32)[C@@H]1O`, the GI50 in the assay on HOP-92 NSCLC is 0.115 µM; with IGROV1 ovarian, 4.86 µM; in the assay with K-562 leukemia, 0.542 µM; in the assay with MCF7 breast, 0.394 µM; in the assay with SF-295 CNS, 1.03 µM; in the assay on ACHN renal, 1.74 µM. In addition, the GI50 with SNB-19 CNS is 1.54 µM; in the assay on NCI-H460 lung it was 4.29 µM; in the assay with CCRF-CEM leukemia it was 0.386 µM; with TK-10 renal it was more than 67 µM. Further, the TGI in the assay with HOP-92 NSCLC was 0.916 µM; in the assay with IGROV1 ovarian, more than 100 µM; in the assay with K-562 leukemia, more than 100 µM; in the assay on MCF7 breast it was more than 31.6 µM; with SF-295 CNS, more than 100 µM; with ACHN renal, more than 100 µM. Besides, the TGI in the assay with SNB-19 CNS, in the assay with NCI-H460 lung, in the assay with CCRF-CEM leukemia and in the assay on TK-10 renal was more than 100 µM throughout.

For `O=C(Nc1nc(-c2ccc(Cl)cc2)cs1)c1cc(O)c(O)c(O)c1`, the GI50 in the assay with HOP-92 NSCLC was 115 µM; in the assay on IGROV1 ovarian, 183 µM; with K-562 leukemia, 167 µM; with MCF7 breast, 349 µM; in the assay with SF-295 CNS it was 544 µM; in the assay with ACHN renal it was 113 µM. Besides, the GI50 with SNB-19 CNS is 144 µM; with NCI-H460 lung, 181 µM; with CCRF-CEM leukemia, 79 µM; with TK-10 renal, 207 µM. The TGI with HOP-92 NSCLC is 1050 µM; in the assay with IGROV1 ovarian, 939 µM; in the assay with K-562 leukemia it was more than 5000 µM; in the assay with MCF7 breast, more than 5000 µM; in the assay with SF-295 CNS, 3280 µM; in the assay on ACHN renal, 1140 µM. The TGI is more than 5000 µM in the assay with SNB-19 CNS, 964 µM with NCI-H460 lung, 760 µM in the assay on CCRF-CEM leukemia and 1470 µM in the assay on TK-10 renal.

Turning to `COc1cccc2c1C(=O)c1c(O)c3c(c(O)c1C2=O)C[C@@](O)(/C(CO)=N/NC(=O)CCCCCN1C(=O)C=CC1=O)C[C@@H]3O[C@H]1C[C@H](N)[C@H](O)[C@H](C)O1`, the GI50 with HOP-92 NSCLC is 0.27 µM; with IGROV1 ovarian it was 1.04 µM; in the assay on K-562 leukemia, 0.825 µM; in the assay with MCF7 breast it was 0.147 µM; in the assay with SF-295 CNS it was 0.404 µM; in the assay with ACHN renal, 0.717 µM. In addition, the GI50 was 0.465 µM in the assay with SNB-19 CNS, 0.0889 µM in the assay on NCI-H460 lung, 0.334 µM in the assay on CCRF-CEM leukemia and 1.68 µM in the assay with TK-10 renal. Also, the TGI was 7.01 µM in the assay with HOP-92 NSCLC; more than 100 µM in the assay on IGROV1 ovarian; more than 52.5 µM with K-562 leukemia; more than 100 µM in the assay on MCF7 breast; 5.56 µM with SF-295 CNS; more than 51.5 µM in the assay on ACHN renal. Moreover, the TGI in the assay on SNB-19 CNS was 11.4 µM; in the assay with NCI-H460 lung, 1.95 µM; in the assay with CCRF-CEM leukemia it was more than 100 µM; in the assay with TK-10 renal it was more than 27.4 µM.
